From US20080269201A1, “Azepane- or Azocane-Substituted Pyrazoline Derivatives, Their Preparation and Use as Medicaments” (LABORATORIOS DEL DR. ESTEVE, S.A., priority 2005, published 2008)

How the values were obtained:
[1] = molecular target: T1, transfected human CB1 receptor (Homo sapiens, UniProt P21554); assay: In-vitro determination of affinity to CB1/CB2 receptors, radioligand [3H]-CP55940; conditions: binding to CB1/CB2 receptors as described, table does not name the subtype, text points to CB1
T1 construct: purchased Receptor Biology, Inc
T1 sequence (P21554 whole entry): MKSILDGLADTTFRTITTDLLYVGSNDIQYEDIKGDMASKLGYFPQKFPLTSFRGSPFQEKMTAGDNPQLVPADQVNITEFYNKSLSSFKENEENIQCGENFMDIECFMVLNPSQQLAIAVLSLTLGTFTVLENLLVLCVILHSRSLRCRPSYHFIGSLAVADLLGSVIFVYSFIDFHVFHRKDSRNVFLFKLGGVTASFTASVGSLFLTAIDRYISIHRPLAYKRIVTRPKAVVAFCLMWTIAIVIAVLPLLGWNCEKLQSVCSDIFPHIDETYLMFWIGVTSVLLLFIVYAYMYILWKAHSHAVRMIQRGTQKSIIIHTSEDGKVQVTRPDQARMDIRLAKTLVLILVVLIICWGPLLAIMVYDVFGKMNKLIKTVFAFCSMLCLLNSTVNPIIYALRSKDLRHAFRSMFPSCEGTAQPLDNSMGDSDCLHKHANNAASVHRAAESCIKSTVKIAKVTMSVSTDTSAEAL
Description: The in-vitro determination of the affinity of the inventive quaternary ammonium salts of substituted pyrazoline compounds to CB1/CB2-Rezeptors is carried out as described in the publication of Ruth A. Ross, Heather C. Brockie et al., “Agonist-inverse agonist characterization at CB1 and CB2 cannabinoid receptors of L-759633, L759656 and AM630”, British Journal of Pharmacology, 126, 665-672, (1999), whereby the transfected human CB1 and CB2 receptors of Receptor Biology, Inc. are used. The radioligand used for both receptors is [^3H]-CP55940. The respective parts of the description are hereby incorporated by reference and forms part of the present disclosure.
The affinity of the inventive substituted pyrazoline compounds to CB1/CB2 receptors was determined as described above.

[2] = molecular target: T2, recombinant human cannabinoid 1 receptor (CB1), CHO cell membranes (Homo sapiens, UniProt P21554); assay: [35S]GTPγS binding assay, antagonism against WIN 55,212-2; assay type: biochemical; conditions: compound at 1 μM against WIN 55,212-2 dose response; 100% = effect of internal standard CB1-antagonist
T2 construct: expressed in transfected cells; membranes prepared
T2 sequence (P21554 whole entry): as above
Description: Chinese hamster ovary (CHO) cells stably expressing recombinant human cannabinoid 1 receptor (CB1) were cultured in nutrient mixture Ham's F 12 supplemented with 10% heat-inactivated fetal bovine serum, 2 mM L-glutamine, 50 U/ml penicillin, 50 U/ml streptomycin and 0.5 mg/ml geneticin. In order to obtain cells, culture flasks were washed twice with phosphate buffered saline and scraped. Then, cells were collected by centrifugation (200×g, 10 min) and stored dry at −80° C. Cells were homogenized in ice-cold 20 mM HEPES, 10 mM EDTA (pH 7.5) and centrifuged at 40,000×g for 15 min at 4° C. The pellet was resuspended in 20 mM HEPES, 0.1 mM EDTA (pH 7.5) and centrifuged for 15 min at 4° C. The final pellet was resuspended in 20 mM HEPES, 0.1 mM EDTA (pH 7.5), and divided in aliquots and stored at −80° C. until use.
The reaction was performed in 96-well plates. Membranes (15 µg protein/well) were incubated for 60 min at 30° C. in buffer (50 mM HEPES, 100 mM KCl, 5 mM MgCl2, 1 mM EDTA, 0.1% wt/vol bovine serum albumin, […], saponin (10 μg/ml), 0.5 nM [^35S]GTPγS, pH 7.4) with compound at 1 μM final concentration in either the absence or presence of dose response curve of agonist WIN 55, 212-2 between 3 nM and 3 μM. The incubation was terminated by rapid filtration through Millipore Multiscreen glass fiber FB, and rinsed two-times with ice-cold assay buffer. Filter plates were dried and 30 μl of scintillation liquid was added. Radioactivity was determined using Wallac Microbeta Trilux. Each experiment was performed at least in duplicate. A WIN 55, 212-2 dose-response was systematically performed.
The average of basal [^35S]GTPγS binding was subtracted from all binding data. In order to compare the antagonism results from one screening campaign to another one, the difference between the maximal agonist effect of WIN 55, 212-2 alone, and the maximal antagonism effect due to WIN 55, 212-2 with an internal standard CB1-antagonist was defined as 100%.
The determination of cannabinoid activity in-vivo was determined as described above.

[3] = In vivo testing for antiobesic activity, acute treatment; conditions: rats, acute oral administration, HCl-salts; body weight difference vs control
Description: Normally handled rats were habituated to a reversed cycle 12/12 h, and the compound as well as saline was acutely orally administered. After administration the cumulated food intake (g) was measured at 6 h and 23 h. Following that the difference in body weight between control and compound treated animals was measured.

SMILES | Antagonism (%) [2] [%] | IC50 [1] [nM] | Antiobesic activity (reducing weight) [3]
C[C@H]1C(C(=O)NN2CCCCCC2)=NN(c2ccc(Cl)cc2Cl)[C@H]1c1ccc(Cl)cc1.Cl (relative stereo) [Example 1, cis-N-(azepan-1-yl)-5-(4-chlorophenyl)-1-(2,4-dichlorophenyl)-4-methyl-4,5-dihydro-1H-pyrazole-3-carboxamide hydrochloride] | 99 ± 5 | 7.9 ± 2.8 | active in this model, reducing weight
C[C@H]1C(C(=O)NN2CCCCCC2)=NN(c2ccc(Cl)cc2Cl)[C@H]1c1ccc(Br)cc1.Cl (relative stereo) [Example 5, cis-N-(azepan-1-yl)-5-(4-bromophenyl)-1-(2,4-dichlorophenyl)-4-methyl-4,5-dihydro-1H-pyrazole-3-carboxamide hydrochloride] | 133 ± 5 | 71 ± 2 | active in this model, reducing weight
COc1ccc([C@H]2[C@@H](C)C(C(=O)NN3CCCCCC3)=NN2c2ccc(Cl)cc2Cl)cc1.Cl (relative stereo) [Example 9, cis-N-(azepan-1-yl)-1-(2,4-dichlorophenyl)-5-(4-methoxyphenyl)-4-methyl-4,5-dihydro-1H-pyrazole-3-carboxamide hydrochloride] | 117 ± 5 | 61 | active in this model, reducing weight

Continued, in another order:

Antagonism (%) [2] [%] | SMILES | IC50 [1] [nM] | Antiobesic activity (reducing weight) [3]
83 ± 6 | C[C@H]1C(C(=O)NN2CCCCCC2)=NN(c2ccc(Cl)cc2Cl)[C@H]1c1ccc(F)cc1.Cl (relative stereo) [7 (HCl), cis-N-(azepan-1-yl)-5-(4-fluorophenyl)-1-(2,4-dichlorophenyl)-4-methyl-4,5-dihydro-1H-pyrazole-3-carboxamide hydrochloride] | 122 | 
52 | C[C@H]1C(C(=O)NN2CCCCCC2)=NN(c2ccc(Cl)cc2Cl)[C@H]1c1ccc(F)cc1 [Example 7] |  | 
